The assay has as its target T1, androgen receptor (Homo sapiens, UniProt P10275).
T1 construct: expressed in transfected cells; host or cells: 293 cells
T1 sequence (P10275 1-920): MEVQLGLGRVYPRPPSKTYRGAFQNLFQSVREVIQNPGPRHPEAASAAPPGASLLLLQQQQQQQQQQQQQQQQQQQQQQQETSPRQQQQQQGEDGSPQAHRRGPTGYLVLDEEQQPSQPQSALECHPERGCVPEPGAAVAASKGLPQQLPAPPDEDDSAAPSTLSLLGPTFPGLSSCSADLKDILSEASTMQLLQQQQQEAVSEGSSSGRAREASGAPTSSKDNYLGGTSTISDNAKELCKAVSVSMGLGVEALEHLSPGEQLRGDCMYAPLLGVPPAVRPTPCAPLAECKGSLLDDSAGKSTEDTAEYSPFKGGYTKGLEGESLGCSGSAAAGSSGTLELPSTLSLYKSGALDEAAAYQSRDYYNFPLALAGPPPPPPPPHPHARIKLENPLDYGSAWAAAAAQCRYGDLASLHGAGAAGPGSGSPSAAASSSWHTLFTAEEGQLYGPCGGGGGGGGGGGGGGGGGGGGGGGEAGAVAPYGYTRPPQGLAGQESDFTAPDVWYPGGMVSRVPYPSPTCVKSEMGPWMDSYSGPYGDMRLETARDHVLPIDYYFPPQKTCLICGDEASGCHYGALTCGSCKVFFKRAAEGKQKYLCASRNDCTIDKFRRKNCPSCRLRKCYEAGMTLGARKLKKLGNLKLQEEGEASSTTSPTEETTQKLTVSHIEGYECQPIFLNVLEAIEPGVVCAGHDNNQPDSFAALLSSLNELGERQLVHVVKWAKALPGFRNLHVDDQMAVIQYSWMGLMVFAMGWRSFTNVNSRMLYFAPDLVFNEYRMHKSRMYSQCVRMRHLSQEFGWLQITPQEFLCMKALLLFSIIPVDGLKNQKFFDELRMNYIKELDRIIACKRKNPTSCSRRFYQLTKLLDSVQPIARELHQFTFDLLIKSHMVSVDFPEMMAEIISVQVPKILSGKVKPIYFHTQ
T1 sequence (Q14192 1-279 partner): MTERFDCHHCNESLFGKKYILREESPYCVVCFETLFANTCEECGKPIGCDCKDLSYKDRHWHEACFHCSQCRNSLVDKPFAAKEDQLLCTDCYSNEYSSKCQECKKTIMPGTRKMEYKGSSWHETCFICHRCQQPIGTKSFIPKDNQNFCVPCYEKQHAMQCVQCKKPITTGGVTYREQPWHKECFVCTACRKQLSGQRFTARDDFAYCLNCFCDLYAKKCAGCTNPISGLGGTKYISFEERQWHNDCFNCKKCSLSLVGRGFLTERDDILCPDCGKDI
As to the kind of experiment: androgen receptor co-activation, MMTV-LUC or proteasin-Luc reporter, transient transfection. Conditions: 293 cells; androgen receptor-expression-plasmid co-transfected. In kind it is cell-based.

SMILES strings stand for the structures.

`C[C@]1(O)CC[C@H]2[C@@H]3CCC4=CC(=O)CCC4=C3C=C[C@@]21C` [R1881, reference compound]: the “transactivation of the reporter gene” value is “transactivated”.

The values are drawn from patent US20020004209A1, “Use of SLIM3 for binding to molecules” (Schering Aktiengesellschaft Patents, priority 1999, published 2002).
